{
  "source": "patent US11707557B2",
  "about": "“Compositions and devices incorporating water-insoluble therapeutic agents and methods of the use thereof” (COOK MEDICAL TECHNOLOGIES LLC, priority 2014, dated 2023)",
  "key": {"mdck-mdr cells [1]": {"test_system": "mdck-mdr cells", "assay": "Uptake and transport of docetaxel through MDCK-MDR cell monolayers (transwell)", "assay_type": "in vitro ADME, canine", "settings": "EGCG-docetaxel solution 250 micrograms/ml, 2 hours 37° C., compared to tween or diblock copolymer micellar solutions", "text": "The canine kidney cells, known as MDCK cells, are a non cancer proliferating cell line from canine kidneys. The MDR derivative of these cells is a multi-drug resistant version. The cell lines MDCK and MDCK-MDR are routinely used in the field of drug resistance because in the MDCK cells drugs can accumulate and kill the cells whereas the MDR cells contain drug efflux proteins that efflux the drug so that much higher drug doses are needed to maintain intracellular concentrations sufficient to kill these cells. […]\nMDCK cells were seeded at 10000 cells per transwell membrane (Becton and Dickenson: 0.3 microns, 1 cm diameter) and grown for one week until a continuous monolayer was present. Drug at 250 micrograms/ml (doped with ^3H docetaxel, with carrier (tween, diblock (2000 40-60) PDLLA-mepeg or EGCG), all in hanks buffer, were added to the top well (0.4 ml) with 1.2 ml of hanks buffer in the base well. The wells were incubated at 37° C. for two hours. The transwells were then disassembled and the amount of drug in the base reservoir (transported through the cells) or in the cells (determined by dissolution of the filter after 3 washes in hanks buffer) was determined by liquid scintillation counting."}, "[2]": {"assay": "Solubility of drug in EGCG or tannic acid solutions (dried down, PBS or water added, 0.22 micron filtered, HPLC or absorbance)", "quoted_text": "PBS (EGCG) or water (tannic acid) was added and the final solution filtered through a 0.22 micron filter to remove any particulates. The solutions were analyzed for drug concentration using HPLC.\nPBS (EGCG) or water (tannic acid) was added and the final solution filtered through a 0.22 micron filter to remove particulates. The solution was then analyzed for drug concentration using absorbance spectroscopy at 450 nm.\nPBS (EGCG) or water (tannic acid) was added and the final solution was filtered through a 0.22 micron filter to remove any particulates and the solution was analyzed for drug concentration using HPLC.\nPBS (EGCG) or water (tannic acid) was added and the final solution filtered through a 0.22 micron filter to remove any particulates and the solution was analyzed for drug concentration using HPLC.\nPBS (EGCG) or water (Tannic acid) was added and the final solution was filtered through a 0.22 um filter to remove any particulates and the solution was analyzed for drug concentration using HPLC.\nMethod: drug and EGCG or tannic acid were dried down from acetonitrile (or methanol for tannic acid) solutions at various drug to EGCG or tannic acid ratios. PBS (EGCG) or water (Tannic acid pH adjusted to 7) was added and the final solution was filtered through a 0.22 um filter to remove any particulates and the solution was analyzed for drug concentration using HPLC methods."}, "[3]": {"test_system": "canine kidney (mdck) cells", "assay": "Uptake of paclitaxel into mdck cells with or without EGCG", "assay_type": "cell-based"}, "mdck-mdr cells [4]": {"test_system": "mdck-mdr cells", "assay": "Uptake of paclitaxel into drug resistant mdck-mdr cells with or without EGCG", "assay_type": "cell-based, canine"}, "fresh rat aorta artery": {"test_system": "fresh rat aorta artery", "assay": "Paclitaxel uptake into artery tissue from coated balloon catheter", "assay_type": "in vitro ADME", "settings": "for available paclitaxel taken up by the artery / available paclitaxel washed out from the artery: ignoring catheter residual and gloves wash", "procedure": "A 2-3 cm strip of fresh rat aorta artery was placed over a 200 microliter pipette tip and fed onto the deflated balloon catheter to mimic the feeding of the balloon into the blood vessel. The balloon was then inflated and the system was left for 2 minutes at 37° C. in a bath of Hanks buffered salt solution (HBSS). The balloon was then deflated and 300 microliters of HBSS pipetted into the artery and the wash out collected in a centrifuge tube. This wash step was repeated three times. Because the handler's gloves were moist and had contacted the balloon (and therefore absorbed some EGCG/drug) the gloves fingers were washed extensively in 100 ml of HBSS.\nThe aorta tissue was placed in 500 microliters of tissue solubilizer and left at 60° C. for 4 hours to digest. The contents were then placed in a scintillation counter. The deployed catheter balloon was observed after the procedure. Some of the balloon had not deployed (the balloon was tight in the aorta and not fully inflated) and traces of the reddish colored EGCG/drug could be observed in the folds. […] The catheter balloon was then inflated in 5 ml of acetonitrile to recover the undissolved EGCG and measured by scintillation counting. All other fractions (aorta wash and gloves wash were also counted. These four fractions (aorta, gloves, catheter residual and aorta wash) accounted for all drug and the total scintillation count form everything was taken and 100% of the applied drug.\nA balloon catheter was inflated and revolved along its horizontal axis. The drug/EGCG solution was slowly pipetted onto the balloon using 25 microliters at a time and dried with gentle heat from an electric blowdryer. A 2-3 cm strip of fresh rat aorta artery was placed over a 200 microliter pipette tip and fed onto the deflated balloon catheter to mimic the feeding of the balloon into the blood vessel. The balloon was then inflated and the system was sonicated for 2 minutes at 37° C. in Hanks buffered salt solution (HBSS) (4 MHz, 30 watts/cm2). The balloon was then deflated and 300 microl of (HBSS) was pipetted into the artery and the wash out collected in a centrifuge tube. This wash step was repeated three times. Samples were collected as in the previous example.\nA balloon catheter was inflated and revolved along its horizontal axis. The drug/diblock solution was slowly pipetted onto the balloon using 25 microliters at a time and dried with gentle heat from an electric blowdryer. […] A 2-3 cm strip of fresh rat aorta artery was placed over a 200 ul pipette tip and fed onto the deflated balloon catheter to mimic the feeding of the balloon into the blood vessel. The system was then immersed in Hanks buffered salt solution (HBSS) at 37° C. for 2 minutes.\nA balloon catheter was inflated and revolved along its horizontal axis. The drug/tannic acid solution was slowly pipetted onto the balloon using 25 microliters at a time and dried with gentle heat from an electric blowdryer."}, "pig bladder tissue": {"test_system": "pig bladder tissue", "assay": "Uptake of paclitaxel into pig bladder tissue from methoxypolyethylene glycol pastes with EGCG or tannic acid", "assay_type": "in vitro ADME", "settings": "MEPEG paste with EGCG or tannic acid, 5% drug, urothelial or perivascular side, 2 hours", "procedure": "Methods: Fresh ex vivo pig bladders were cut into 2 cm diameter pieces and laid on franz diffusions cells. […] 100 mg of paste was applied to either the perivascular or urothelial side of the bladder tissue and 200 ul of tyrodes buffer pH 7.4 was added. The tissue was incubated for 2 hours at 37° C. and then the diffusion cell was disassembled, the tissue was washed free of remaining paste with excess tyrodes and the tissues were then frozen and cryosectioned for radioactivity counting by liquid scintillation methods."}, "[5]": {"settings": "co-incubated with EGCG at 50 microg/ml"}},
  "data": [
    {"compound": "CC(=O)O[C@@]12CO[C@@H]1C[C@H](O)[C@@]1(C)C(=O)[C@H](O)C3=C(C)[C@@H](OC(=O)[C@H](O)[C@@H](NC(=O)OC(C)(C)C)c4ccccc4)C[C@@](O)([C@@H](OC(=O)c4ccccc4)[C@H]21)C3(C)C", "note": "[docetaxel]", "values": [
      {"measurement": "amount of docetaxel accumulated in the cells or transported through the cells", "setting": "mdck-mdr cells [1]", "result": "increased"},
      {"measurement": "solubility", "setting": "[2]; EGCG solution (200 mg/ml) in PBS, aqueous with cosolvent or surfactant or cyclodextrin, thermodynamic from solid, drug concentration solubilised at maximum EGCG concentration, EGCG 200 mg per ml, PBS", "result": "~1500", "unit": "µg/mL"},
      {"measurement": "effect of temperature on solubility", "setting": "[2]; EGCG solutions", "result": "no effect of temperature"},
      {"measurement": "stability of EGCG solutions of the drug", "setting": "[2]; EGCG solutions, 24 hours", "result": "stable over 24 hours"},
      {"measurement": "stability of tannic acid solutions of the drug", "setting": "[2]; tannic acid concentrations above 150 mg/ml, 24 hrs", "result": "not stable over 24 hrs"},
      {"measurement": "effect of temperature on solubility", "setting": "[2]; tannic acid solutions, 37° C. or 50° C. compared to 23° C.", "result": "no effect of temperature"},
      {"measurement": "solubility", "setting": "[2]; water, free solubility in water, no EGCG or tannic acid", "result": "5 to 7", "unit": "µg/mL"}
    ]},
    {"compound": "CC(=O)O[C@H]1C(=O)[C@@]2(C)[C@H]([C@H](OC(=O)c3ccccc3)[C@]3(O)C[C@H](OC(=O)[C@H](O)[C@@H](NC(=O)c4ccccc4)c4ccccc4)C(C)=C1C3(C)C)[C@]1(OC(C)=O)CO[C@@H]1C[C@@H]2O", "note": "[paclitaxel]", "values": [
      {"measurement": "paclitaxel level in cells", "setting": "[3]; [5]", "result": "≤ 2000", "unit": "pg/mg"},
      {"measurement": "paclitaxel level in cells", "setting": "[3]; paclitaxel alone", "result": "approximately 200 pg/mg cellular protein"},
      {"measurement": "increase in drug uptake with EGCG", "setting": "[3]; with EGCG versus alone", "result": 10, "unit": "fold"},
      {"measurement": "paclitaxel level in cells", "setting": "mdck-mdr cells [4]; [5]", "result": "≤ 2000", "unit": "pg/mg"},
      {"measurement": "paclitaxel level in cells", "setting": "mdck-mdr cells [4]; paclitaxel alone", "result": "< 200", "unit": "pg/mg cellular protein"},
      {"measurement": "increase in drug uptake with EGCG", "setting": "mdck-mdr cells [4]; with EGCG versus alone", "result": 10, "unit": "fold"},
      {"measurement": "total paclitaxel associated with the artery", "setting": "fresh rat aorta artery; EGCG coating (30 mg EGCG, 300 microgram drug), 2 minutes 37° C.", "result": "More than 50%"},
      {"measurement": "total paclitaxel washed out of the artery", "setting": "fresh rat aorta artery; EGCG coating with ultrasound", "result": 2, "unit": "%"},
      {"measurement": "total paclitaxel associated with the artery", "setting": "fresh rat aorta artery; EGCG coating with ultrasound (4 MHz, 30 watts/cm2), 2 minutes", "result": "More than 50%"},
      {"measurement": "available paclitaxel taken up by the artery", "setting": "fresh rat aorta artery; EGCG coating with ultrasound", "result": "approximately 95%"},
      {"measurement": "available paclitaxel washed out from the artery", "setting": "fresh rat aorta artery; EGCG coating with ultrasound", "result": "less than 5%"},
      {"measurement": "total paclitaxel washed out of the artery", "setting": "fresh rat aorta artery; EGCG coating, 2 minutes 37° C.", "result": 2, "unit": "%"},
      {"measurement": "available paclitaxel taken up by the artery", "setting": "fresh rat aorta artery; EGCG coating", "result": "approximately 95%"},
      {"measurement": "available paclitaxel washed out from the artery", "setting": "fresh rat aorta artery; EGCG coating", "result": "less than 5%"},
      {"measurement": "total paclitaxel washed out of the artery", "setting": "fresh rat aorta artery; diblock copolymer coating", "result": "less than 2%"},
      {"measurement": "total paclitaxel associated with the artery", "setting": "fresh rat aorta artery; diblock copolymer coating (6 mg), 2 minutes", "result": "Approximately 10%"},
      {"measurement": "residual on the catheter", "setting": "fresh rat aorta artery; tannic acid coating", "result": "approximately 29%"},
      {"measurement": "total paclitaxel associated with the artery", "setting": "fresh rat aorta artery; tannic acid coating", "result": "Approximately 40%"},
      {"measurement": "total paclitaxel washed out of the artery", "setting": "fresh rat aorta artery; tannic acid coating", "result": "less than 1%"},
      {"measurement": "available drug transferred to the tissues", "setting": "fresh rat aorta artery; tannic acid coating, ignoring drug on catheter and gloves", "result": "over 95%"},
      {"measurement": "penetration of paclitaxel into the bladder tissue", "setting": "pig bladder tissue", "result": "allowed for the penetration"},
      {"measurement": "solubility", "setting": "physchem; aqueous with cosolvent or surfactant or cyclodextrin, thermodynamic from solid, drug concentration solubilised at maximum EGCG concentration", "result": "~1000", "unit": "µg/mL"},
      {"measurement": "solubility", "setting": "physchem; aqueous with cosolvent or surfactant or cyclodextrin, thermodynamic from solid, drug concentration solubilised at maximum tannic acid concentration", "result": "~4800", "unit": "µg/mL"},
      {"measurement": "solubility", "setting": "physchem; water, free solubility in water", "result": 1, "unit": "µg/mL"}
    ]}
  ]
}
